Source: patent US11865100B2, “Method for treatment of rosacea in patients aged 65 years and older” (Sol-Gel Technologies Ltd., priority 2019, dated 2024)

Legend:
[1] = test system: papulopustular rosacea in patients aged 65 years and older; assay: Randomized, double-blind, vehicle-controlled 12-week study of E-BPO cream: Investigator Global Assessment (IGA) success rate; type: in vivo, human; settings: Week 8
Method: Description: A randomized, double-blind, multi-center, parallel group, active- and vehicle-controlled study of encapsulated 5% benzoyl peroxide cream (E-BPO) and vehicle cream was performed to assess the efficacy and safety of E-BPO compared to vehicle. Study duration was 12 weeks and included approximately 350 male and female patients afflicted with papulopustular rosacea. 71 patients (about 20%) were at least 65 years of age.
Patients were admitted into the study after meeting all inclusion/exclusion criteria, including a clinical diagnosis of rosacea. Subjects with moderate to severe rosacea who were appropriate for systemic treatment were counseled regarding their treatment options by the Principal Investigator. At each visit, a 5-point IGA scale of rosacea and inflammatory lesion counts were performed and recorded.
Dosing: Patients were randomly organized in a 2:1 ratio to the study product or vehicle treatment group, respectively. Patients applied the study product once daily for 12 weeks on the face in a thin layer to provide even distribution.
Clinical and Safety Evaluations were performed at Baseline and Weeks 2, 4, 8 and 12.
The success rate of the treatment of rosacea (defined as a 2-grade improvement in the IGA relative to Baseline at Weeks 2, 4, […] and 12, with an IGA of Clear or Almost Clear) in patients aged 65 years and older are shown in Table 1 and FIG. 1. […]

rosacea = settings: Gul 2008; BPO as sole active agent; cited from earlier work

O=C(OOC(=O)c1ccccc1)c1ccccc1 [BPO, Benzoyl peroxide]
Success rate greater than the success rate achieved with vehicle alone (difference drug - vehicle) [1]: 25%
Response of rosacea lesions (rosacea): unresponsive
